{"source": "patent US20190185865A1", "about": "“USE OF PROKARYOTIC TRANSCRIPTIONAL ACTIVATORS AS METABOLITE BIOSENSORS IN EUKARYOTIC CELLS” (Danmarks Tekniske Universitet, priority 2016, published 2019)", "key": {"ArgP": {"target": "T1, ArgP (Escherichia coli, UniProt P0A8S1)", "T1 construct": "expressed in transfected cells; host or cells: Saccharomyces cerevisiae CEN.PK113-5A; REV1p or TDH3p, chromosomal integration (TISNO-66/-73)", "test": "L-arginine induction of ArgP-mediated GFP expression in yeast", "assay_type": "cell-based", "conditions": "30 mM L-arginine", "description": "(§1) Events were analyzed using FlowJo software (TreeStar Inc.).\n(§2) The genetic device developed in this study represents to the best of our knowledge the first example of transplanting a prokaryotic transcriptional activator into a eukaryotic chassis and successfully using it to activate gene expression without the need for modifying the protein beyond codon optimization. […] To test the generality of the biosensor design for onboarding other small-molecule binding transcriptional activators as biosensors in yeast we selected four other candidates from the LTTR family; FdeR from Herbaspirillum seropedicae, PcaQ from Sinorhizobium meliloti, ArgP from Escherichia coli, and MdcR from Klebsiella pneumonia, with co-inducers naringenin, protocatechuic acid (PCA), L-arginine, and malonic acid, respectively. In this proof-of-principle study we selected the four candidates based on a minimal set of information, including knowledge about operator sequences, experimental evidence for ligand-inducible control of target operons, and their mode-of-action within native chassis (ie. activation, FIG. 1). Furthermore all of these metabolites can passively diffuse across the yeast plasma membrane, with the exception of malonic acid, which requires the expression of the dicarboxylic acid transporter MAE1 from Schizosaccharomyces pombe. […]"}, "MdcR": {"test_system": "MdcR", "test": "Malonic acid induction of MdcR-mediated GFP expression in yeast", "assay_type": "cell-based", "conditions": "MdcR from TDH3 promoter, MAE1 transporter; 10 mM malonic acid", "description": "as §1, §2"}, "FdeR": {"test_system": "FdeR", "test": "Naringenin induction of FdeR-mediated GFP expression in yeast", "assay_type": "cell-based, Saccharomyces cerevisiae", "from_the_text": "Strains, chemicals and media. Saccharomyces cerevisiae CEN.PK102-5B (MATa ura3-52 his3Δ1 leu2-3/112 MAL2-8^c SUC2), CEN.PK113-5A (MATa, trp1 his3Δ1 leu2-3/112 MAL2-8^c SUC2) and CEN.PK113-7D (wild type, MATa MAL2-8^c SUC2) strains were obtained from Peter Kotter (Johann Wolfgang Goethe-University Frankfurt, Germany). In principal any other yeast strains may be used, such as one obtained from public repository EuroScarf. EasyClone plasmids used in this work are described in Jensen, N. B. et al. EasyClone: method for iterative chromosomal integration of multiple genes in Saccharomyces cerevisiae. FEMS Yeast Res. 14, 238-48 (2014). Escherichia coli strain DH5a was used as a host for cloning and plasmid propagation. The chemicals and Pfu TURBO DNA polymerase were commercially obtained (Sigma-Aldrich and Agilent Technologies Inc., respectively). All acids used were >97% in purity. S. cerevisiae cells were grown at 30° C. in synthetic complete medium as well as drop-out media and agar plates were prepared using pre-mixed drop-out powders (Sigma-Aldrich). Mineral medium was freshly prepared as described previously. For all media containing diacids, 1.4 mM of the individual diacids were dissolved in mineral medium and pH adjusted to 4.5 before sterile filtration. For CCM several dilutions were made to examine the performance of the CCM biosensor. For naringenin, mineral medium was supplemented with 0, 0.05, 0.10 or 0.20 mM naringenin, dissolved in ethanol, the final ethanol concentration for each medium was 2% (v/v), and the final pH of the medium was adjusted to 6.0. E. coli cells were grown at 37° C. in Luria-Bertani (LB) medium supplemented with 100 μg/mL ampicillin.\nas §1\nThe genetic device developed in this study represents to the best of our knowledge the first example of transplanting a prokaryotic transcriptional activator into a eukaryotic chassis and successfully using it to activate gene expression without the need for modifying the protein beyond codon optimization. […]"}, "[1]": {"test": "Solubility in growth medium", "assay_type": "physicochemical", "conditions": "aqueous buffer, read-out: concentrations of naringenin soluble in growth medium"}, "yeast transcriptome": {"test_system": "yeast transcriptome", "test": "Transcriptome analysis (RNA-seq) of yeast with or without BenM^H110R, F211V, Y286N", "assay_type": "cell-based, Saccharomyces cerevisiae", "conditions": "24 h cultivation in the presence of CCM", "description": "To study the impact of ligand-induced BenM on genome-wide gene expression, triplicate cultures of strains MeLS0138 and MeLS0284 were grown for 24 h at 30° C. in 50 ml mineral medium pH 4.5 with 1.4 mM CCM. […] Briefly, 15 ml samples of the six cultures were harvested into a pre-chilled 50 ml tube with crushed ice and then immediately centrifuged at 4° C., 4000×rpm for 5 min. Subsequently, the pellets were resuspended in 2 ml of RNAlater® Solution (Ambion, Life Technologies) and incubated on ice for 1 h. Next, cells were pelleted by centrifugation (12,000×rpm for 10 s) and transferred to liquid nitrogen, and stored at −80° C. until further analysis. Total RNA extraction was performed using RNeasy® Mini Kit (QIAGEN). […] The quantity and quality of the RNA samples were measured using Qubit 2.0 Fluorometer using the Qubit RNA BR Assay (Thermo Fisher Scientific) and Agilent 2100 Bioanalyzer using the RNA 6000 Nano Kit (Agilent Technologies), respectively. For sequencing we used 3 μg of total RNA as input for TruSeq® Stranded mRNA Sample Preparation kit prior to sequencing on the MiSeq System using MiSeq Reagent Kit v3 150 cycles at a 2×75 bp read length configuration (Illumina) obtaining 38 M reads. […]"}, "209 bp_CYC1p_T1 promoter": {"test_system": "209 bp_CYC1p_T1 promoter", "test": "LTTR-mediated activation of GFP expression from 209 bp_CYC1p_T1 reporter promoter in yeast, without ligand", "assay_type": "cell-based, Saccharomyces cerevisiae", "conditions": "LTTR expressed from weak REV1p promoter", "description": "as §1, §2"}, "[2]": {"test_system": "209 bp_CYC1p_T1 promoter with MdcO or ArgO", "test": "Cross-reactivity of LTTRs ArgP and MdcR with operators MdcO and ArgO (flow cytometry)", "assay_type": "cell-based, Saccharomyces cerevisiae", "conditions": "ArgP and MdcR with 209 bp_CYC1p_T1 carrying MdcO or ArgO", "from_the_text": "Many of the characterized LTTRs regulate operons by binding prototypic LTTR box patterns 5′-T-N11-A-3′ and 5′-TTA-N7/8-GAA-3′. In addition to transcriptional orthogonality (FIG. 3b), we therefore further tested if individual LTTRs would cross-react with operators for another LTTR. For this purpose, we expressed LTTRs ArgP and MdcR together with the 209 bp_CYC1p_T1 promoter with operators for MdcR (herein MdcO) or ArgP (herein ArgO) driving the expression of GFP. As controls we tested GFP expression from 209 bp_CYC1p_T1 promoter with MdcO or ArgO without expression of LTTRs. […] This is in agreement with another study on cross-reactivity between promoter and transcriptional regulators of the TetR family, and the fact that LTTR residues in both the conserved N-terminal DNA-binding domains and the divergent EBDs are important for DNA-binding."}}, "data": [{"molecule": "N=C(N)NCCC[C@H](N)C(=O)O", "note": "[L-arginine]", "values": [{"measurement": "ligand-inducible increase in GFP expression", "setting": "ArgP; ArgP expression controlled by REV1p", "value": "significant ligand-inducible increase in GFP expression"}, {"measurement": "induction of GFP expression upon addition of cognate inducer", "setting": "ArgP; ArgP from TDH3 promoter", "value": "further induce GFP expression"}]}, {"molecule": "O=C(O)CC(=O)O", "note": "[malonic acid]", "values": [{"measurement": "induction of GFP expression upon addition of cognate inducer", "setting": "MdcR", "value": "further induce GFP expression"}]}, {"molecule": "O=C1C[C@@H](c2ccc(O)cc2)Oc2cc(O)cc(O)c21", "note": "[naringenin]", "values": [{"measurement": "induction of GFP expression upon addition of cognate inducer", "setting": "FdeR; FdeR from TDH3 promoter, 0.2 mM naringenin", "value": "further induce GFP expression"}, {"measurement": "maximum increase in GFP expression", "setting": "FdeR; FdeR from strong TDH3 promoter, 0.2 mM naringenin, 24 h", "value": 1.7, "unit": "fold"}, {"measurement": "induction of GFP expression", "setting": "FdeR; FdeR from weak REV1 promoter, any of the tested naringenin concentrations", "value": "did not support induction of GFP expression"}, {"measurement": "solubility", "setting": "[1]", "value": "< 200", "unit": "µM"}]}, {"molecule": "BenM^H110R, F211V, Y286N (protein, UniProt O68014 1-304, looked up, variant H110R F211V Y286N) HTH-type transcriptional …: MELRHLRYFVAVVEEQSFTKAADKLCIAQPPLSRQIQNLEEELGIQLLERGSRPVKTTPEGHFFYQYAIKLLSNVDQMVSMTKRIASVEKTIRIGFVGSLLFGLLPRIIRLYRQAHPNLRIELYEMGTKAQTEALKEGRIDAGFGRLKISDPAIKRTLLRNERLMVAVHASHPLNQMKDKGVHLNDLIDEKILLYPSSPKPNFSTHVMNIVSDHGLEPTKINEVREVQLALGLVAAGEGISLVPASTQSIQLFNLSYVPLLDPDAITPIYIAVRNMEESTYIYSLNETIRQIYAYEGFTEPPNW", "values": [{"measurement": "average GFP transcript abundance, strain MeLS0284 compared to strain MeLS0138", "setting": "yeast transcriptome", "value": "approximately 27 fold"}, {"measurement": "decrease in expression level of TCS3", "setting": "yeast transcriptome; P<0.05, >2-fold cut-off", "value": 2.3, "unit": "×"}]}, {"molecule": "ArgP: LTTR transcriptional activator from Escherichia coli, co-inducer L-arginine (protein, UniProt P0A8S1 1-297, looked up) HTH-type transcriptional …: MKRPDYRTLQALDAVIRERGFERAAQKLCITQSAVSQRIKQLENMFGQPLLVRTVPPRPTEQGQKLLALLRQVELLEEEWLGDEQTGSTPLLLSLAVNADSLATWLLPALAPVLADSPIRLNLQVEDETRTQERLRRGEVVGAVSIQHQALPSCLVDKLGALDYLFVSSKPFAEKYFPNGVTRSALLKAPVVAFDHLDDMHQAFLQQNFDLPPGSVPCHIVNSSEAFVQLARQGTTCCMIPHLQIEKELASGELIDLTPGLFQRRMLYWHRFAPESRMMRKVTDALLDYGHKVLRQD", "values": [{"measurement": "activation of GFP expression compared to yeast cells without expression of an LTTR", "setting": "209 bp_CYC1p_T1 promoter", "value": 2.2, "unit": "×"}, {"measurement": "cross-reaction of LTTR with operator for another LTTR", "setting": "[2]", "value": "specificity between LTTR transcriptional activators and their inferred operator"}]}]}
